Measurements taken from ChEMBL document CHEMBL1125979, “Phosphinic acid inhibitors of 3-hydroxy-3-methylglutaryl-coenzyme a reductase” (Bioorg Med Chem Lett, 1991).

Assays:
HepG2 [1] = assay: The compound was tested for inhibition of cholesterol biosynthesis in human hepatoma G2 cell line; assay type: functional, cell-based
HepG2 [2] = assay: The compound was tested for inhibition of cholesterol biosynthesis in human hepatoma G2 cell line; showed relatively low potency; assay type: functional, cell-based
[3] = target: T1, 3-hydroxy-3-methylglutaryl-coenzyme A reductase (Homo sapiens, UniProt P04035); assay: The inhibitory activity against purified recombinant human HMG-CoA reductase was evaluated
T1 sequence (P04035 whole entry): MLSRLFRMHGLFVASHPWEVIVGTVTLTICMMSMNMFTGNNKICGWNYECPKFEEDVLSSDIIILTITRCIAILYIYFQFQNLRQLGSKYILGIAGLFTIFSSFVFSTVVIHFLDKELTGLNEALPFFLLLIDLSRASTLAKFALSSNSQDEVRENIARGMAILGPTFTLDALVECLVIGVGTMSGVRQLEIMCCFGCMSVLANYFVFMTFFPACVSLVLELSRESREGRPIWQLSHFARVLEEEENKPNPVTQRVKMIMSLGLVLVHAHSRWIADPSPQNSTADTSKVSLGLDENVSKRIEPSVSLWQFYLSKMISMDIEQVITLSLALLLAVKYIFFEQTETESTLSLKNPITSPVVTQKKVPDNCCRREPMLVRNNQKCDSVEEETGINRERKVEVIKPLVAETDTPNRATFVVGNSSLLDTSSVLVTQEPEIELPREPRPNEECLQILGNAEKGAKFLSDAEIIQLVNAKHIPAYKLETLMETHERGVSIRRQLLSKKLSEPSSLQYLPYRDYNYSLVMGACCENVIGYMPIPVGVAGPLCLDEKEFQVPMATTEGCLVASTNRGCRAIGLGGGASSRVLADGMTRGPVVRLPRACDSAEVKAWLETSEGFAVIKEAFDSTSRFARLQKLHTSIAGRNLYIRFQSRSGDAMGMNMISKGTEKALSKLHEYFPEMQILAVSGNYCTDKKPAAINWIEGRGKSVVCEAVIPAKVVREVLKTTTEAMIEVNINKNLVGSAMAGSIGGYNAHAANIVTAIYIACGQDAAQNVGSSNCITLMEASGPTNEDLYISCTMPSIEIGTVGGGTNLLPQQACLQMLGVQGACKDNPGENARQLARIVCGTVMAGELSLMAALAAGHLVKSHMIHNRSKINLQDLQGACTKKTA

Row | Structure (SMILES) | IC50 (HepG2 [1]) | IC50 (HepG2 [2]) | Ki [3]
1 | CC(C)(C)C(=O)OCOC(=O)CC(O)CP(=O)(CCc1c(Cl)cc(Cl)cc1OCc1ccccc1)OCOC(=O)C(C)(C)C (stereo not given) | 100 nM |  | 
2 | O=C(O)C[C@H](O)CP(=O)(O)CCc1c(Cl)cc(Cl)cc1OCc1ccccc1 |  | > 1000 nM | 16 nM
3 | O=C(O)C[C@H](O)C[C@H](O)CCc1c(Cl)cc(Cl)cc1OCc1ccccc1 |  |  | 3 nM
4 | COC(=O)CC(O)CP(=O)(O)CCc1c(Cl)cc(Cl)cc1OCc1ccccc1 (stereo not given) | 100 nM |  | 
